Results taken from patent publication US7541020B2, “Aminoalkyl glucosaminide phosphate compounds and their use as adjuvants and immunoeffectors” (priority 1997, dated 2009).
Values joined by “and” are separate entries in the source; they are usually repeats but may differ in a detail not shown here. Identical values can stand only once. Like-named read-outs stand apart in the source and are kept apart here.

Columns and labels:
influenza A/HK/68 [1] = tested on: influenza A/HK/68; set-up: species or system ICR mice; settings: mouse, in vivo
[2] = tested on: hepatitis B surface antigen (HBsAg); settings: for % Cytotoxicity (d16, post 2°): HBsAg + 10 μg AGP-AF intranasally; for % Cytotoxicity (d8, post 3°): intranasal HBsAg + 10 μg AGP-AF
tetanus toxoid [3] = settings: mouse, in vivo
E.G7 (OVA) cells = settings: s.c. 25 μg OVA in AGP preparation, spleen cells 21 days later
IL-1β = assay: Cytokine induction in human whole blood ex vivo culture: IL-1β (ELISA); type: cell-based; settings: 4 hr, Table 17
Method in brief: (§1)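 Compounds in 10% EtOH-water added at 1:10 to human whole blood, 4 hr at 37° C with rotation; RPMI-treated controls. After PBS dilution and centrifugation, supernatant TNF-α and IL-1β measured by ELISA.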

[4] = tested on: hepatitis B surface antigen (HBsAg); assay: Vaginal wash anti-HBsAg antibody after intranasal HBsAg + AGP-AF; type: in vivo, BALB/c mice; settings: 10 days after the booster immunization; intranasal HBsAg + 10 μg AGP-AF
Description: Vaginal samples were collected 10 days after the booster immunization and assayed for anti-HBsAg antibody.

TNF-α = assay: Cytokine induction in human whole blood ex vivo culture: TNF-α (ELISA); type: cell-based; settings: 4 hr, Table 17
Method in brief: as §1

influenza A/HK/68 [5] = type: in vivo, BALB/c mice; settings: mouse, in vivo
ovalbumin = assay: Stimulation of antiovalbumin antibody production; type: in vivo, BDF1 female mice; settings: 50 μg AGP + 50 μg ovalbumin; second immunization day 21; bled 14 days after second injection
Procedure: BDF1 female mice (8 per group) were immunized with 0.2 ml of emulsions containing 50 μg of the AGPs +50 μg of ovalbumin. A second immunization was administered 21 days post primary. Each mouse was bled 14 days after the second injection.

influenza A/HK/68 [6] = assay: Second intranasal influenza vaccine experiment with aqueous AGP and MPL formulations: vaginal, tracheal wash and serum titers, protection; type: in vivo, BABL/c mice; settings: mouse, in vivo
[7] = Fever response in rabbits (pyrogenicity); type: in vivo
Procedure: The AGP compounds were also evaluated for their tendency to induce a fever response in rabbits. Each compound was formulated in 10% (v/v) ethanol/water solution at 100 mg/ml, then diluted with D5W to the desired concentration. The material was injected at 3 ml/kg body weight into 3 rabbits. The rise in core temperature of the rabbits was recorded.

influenza A/HK/68 [8] = type: in vivo, ICR mice; settings: mouse, in vivo
tetanus toxoid [9] = tested on: tetanus toxoid; set-up: species or system BFD1 (C57B1/6X DBA/2) female mice; settings: mouse, in vivo
[10] = tested on: hepatitis B surface antigen (HBsAg); assay: Serum anti-HBsAg antibody titers after intranasal HBsAg + AGP-AF (ELISA); type: in vivo, BALB/c mice; settings: for Anti HBsAg Titer^−1 IgG1 / Anti HBsAg Titer^−1 IgG2a: K = 10^3
tetanus toxoid [11] = settings: mouse, in vivo, sc
[12] = day 22 post 2°, HBsAg + 10 μg AGP-AF intranasally
[13] = serum, day 21 post 3°, intranasal HBsAg + 10 μg AGP-AF

Substance: N-[(R)-3-Decanoyloxytetradecanoyl]-O-[2-deoxy-4-O-phosphono-2-[(R)-3-decanoyloxytetradecanoylamino]-3-O-[(R)-3-decanoyloxytetradecanoyl]-β-D-glucopyranosyl]-L-serine Triethylammonium Salt [B15]
- Anti-influenza Titer^−1 Total IgG (influenza A/HK/68 [1]): 6400
- Percent Survival (influenza A/HK/68 [1]): 50%
- % Cytotoxicity (d16, post 2°) ([2]; E/T 6.25:1): 4%
- % Cytotoxicity (d8, post 3°) ([2]; E/T 6.25:1): 16%
- % Cytotoxicity (d16, post 2°) ([2]; E/T 12.5:1): 4%
- % Cytotoxicity (d8, post 3°) ([2]; E/T 12.5:1): 25%
- % Cytotoxicity (d16, post 2°) ([2]; E/T 25:1): 5%
- % Cytotoxicity (d8, post 3°) ([2]; E/T 25:1): 42%
- % Cytotoxicity (d16, post 2°) ([2]; E/T 50:1): 13%
- % Cytotoxicity (d8, post 3°) ([2]; E/T 50:1): 56%
- Anti-Tetanus Toxoid Titer^−1 Fecal Extract IgG (tetanus toxoid [3]): 50 and 100
- Anti-Tetanus Toxoid Titer^−1 Vaginal Wash IgA (tetanus toxoid [3]): 6400
- Anti-Tetanus Toxoid Titer^−1 Vaginal Wash IgG (tetanus toxoid [3]): 400 and 800
- % Cytotoxicity (E.G7 (OVA) cells; E:T 12.5:1): 30%
- % Cytotoxicity (E.G7 (OVA) cells; E:T 25:1): 49%
- % Cytotoxicity (E.G7 (OVA) cells; E:T 50:1): 58%
- IL-1β (IL-1β; Dosage 100 ng/ml): 51.6 pg/mL
- IL-1β (IL-1β; Dosage 500 ng/ml): 104 pg/mL
- IL-1β (IL-1β; Dosage 1000 ng/ml): 94.4 pg/mL
- IL-1β (IL-1β; Dosage 5000 ng/ml): 126 pg/mL
- IL-1β (IL-1β; Dosage 10,000 ng/ml): 153 pg/mL
- Vaginal Wash Anti-HBsAg Titer^−1 IgA [4]: 3200
- Vaginal Wash Anti-HBsAg Titer^−1 IgG [4]: 50
- TNF-α (TNF-α; Dosage 100 ng/ml): 133 pg/mL
- TNF-α (TNF-α; Dosage 500 ng/ml): 183 pg/mL
- TNF-α (TNF-α; Dosage 1000 ng/ml): 209 pg/mL
- TNF-α (TNF-α; Dosage 5000 ng/ml): 280 pg/mL
- TNF-α (TNF-α; Dosage 10,000 ng/ml): 320 pg/mL
- Anti-influenza Titer^−1 IgG1 (influenza A/HK/68 [5]): 3200
- Anti-influenza Titer^−1 IgG2a (influenza A/HK/68 [5]): 3200
- Anti-influenza Titer^−1 IgG2b (influenza A/HK/68 [5]): 400
- Anti-influenza Titer^−1 Total IgG (influenza A/HK/68 [5]): 1600
- Percent Survival (influenza A/HK/68 [5]): 100%
- Anti-ovalbumin IgG1 T/C (ovalbumin): 0.6
- Anti-ovalbumin IgG1 Titer (ovalbumin): 950
- Anti-ovalbumin IgG2a T/C (ovalbumin): 0.3
- Anti-ovalbumin IgG2a Titer (ovalbumin): 113
- Anti-ovalbumin IgG2b T/C (ovalbumin): 16.7
- Anti-ovalbumin IgG2b Titer (ovalbumin): 3963
- Anti-ovalbumin IgM T/C (ovalbumin): 2.3
- Anti-ovalbumin IgM Titer (ovalbumin): 438
- Anti-ovalbumin Total Ig T/C (ovalbumin): 4.1
- Anti-ovalbumin Total Ig Titer (ovalbumin): 925
- Mucosal IgA Response TW (influenza A/HK/68 [6]): 11.1
- Mucosal IgA Response VW (influenza A/HK/68 [6]): 10.9
- Percent Protection (influenza A/HK/68 [6]): 100%
- Serum IgG Titers (influenza A/HK/68 [6]): 19.1
- mucosal adjuvant activity (in words) (influenza A/HK/68 [6]): act as mucosal adjuvants causing the production of IgA at two mucosal sites
- PYROGENICITY Total Rise ° C., 3 rabbits ([7]; 10 ug/kg, cumulative rise ≥1.5 degree in three rabbits is considered pyrogenic): 3.1 °C
- PY[…] ([7]; rabbits): <0.06 µg/kg
- Percent Survival (influenza A/HK/68 [8]): 70%
- Titer^−1 IgG1 (influenza A/HK/68 [8]): 200
- Titer^−1 IgG2a (influenza A/HK/68 [8]): 3200
- Titer^−1 IgG2b (influenza A/HK/68 [8]): 6400
- Titer^−1 Total IgG (influenza A/HK/68 [8]): 3200
- IgG1 T/C Ratio (tetanus toxoid [9]): 4.1 and 4.5 and 5.5
- IgM T/C (tetanus toxoid [9]): 3.14 and 2.29 and 2.86 and 1.71 and 1.57
- Total Ig T/C (tetanus toxoid [9]): 233.88 and 181.91 and 170.10 and 248.06 and 166.56
- Total Ig T/C Ratio (tetanus toxoid [9]): 3.3 and 5.8 and 5.3
- Anti HBsAg Titer^−1 IgA [10, 12]: 6,400
- Anti HBsAg Titer^−1 IgG1 [10, 12]: 256K
- Anti HBsAg Titer^−1 IgG2a [10, 12]: 500K
- Anti HBsAg Titer^−1 IgG1 [10, 13]: 2000K
- Anti HBsAg Titer^−1 IgG2a [10, 13]: 2000K
- Anti HBsAg Titer^−1 IgA [10, 13]: 25,600
- Anti-tetanus toxoid IgM T/C (tetanus toxoid [11]): 4.0 and 2.7
- Anti-tetanus toxoid Total Ig T/C (tetanus toxoid [11]): 144.5
- Anti-tetanus toxoid Total Ig Titer (tetanus toxoid [11]): 34,400
- Anti-tetanus toxoid Total IgG T/C (tetanus toxoid [11]): 18.85
- Anti-tetanus toxoid Total IgG Titer (tetanus toxoid [11]): 121,600
